Measurements: paper PMC8509773, “3-Pyridinylidene Derivatives of Chemically Modified Lupane and Ursane Triterpenes as Promising Anticancer Agents by Targeting Apoptosis” (International Journal of Molecular Sciences, 2021)

How the values were obtained:
[1] = system: NCI-60 cancer cell line panel; set-up: method as in PMID 33970717; conditions: earlier study; read-out: GI50 range against NCI-60; cited from earlier work
chorioallantoic membrane = test: HET-CAM irritation assay; conditions: in vivo
Text: HET-CAM assay was used in order to assess the toxicity of compounds 6 and 7 (Figure 16); the procedure is a low-cost, unique model in biomedical research that allows the testing of the irritation potency of chemical compounds while simultaneously avoiding in vivo experiments. […] The Luepke scale was used to establish the irritation score: 0–0.9 indicates non-irritant, 1–4.9 indicates weakly irritant, 5–8.9 indicates moderately irritant, and 9–21 means strongly irritant.
Compounds 6 and 7 were also evaluated in terms of biocompatibility on mucosal tissues by using the in vivo Hen’s Egg Chorioallantoic Membrane Test (HET-CAM assay). The assay assesses a potential irritant effect on the vascular plexus of the chorioallantoic membrane. The HET-CAM method was carried out following ICCVAM recommendations published in November 2016 in Appendix G and adapted to our laboratory conditions. Thus, 300 µL of control or test solution, respectively, was applied on CAM and the alterations induced at the CAM level were monitored by means of stereomicroscopy (Discovery 8 Stereomicroscope, Zeiss), registering significant images (Axio CAM 105 color, Zeiss), before the application and after 5 min contact with the samples. All images were processed using Zeiss ZEN software, Gimp 2.8 and ImageJ software. Negative control was represented by distilled water and solvent control DMSO 0.5%, while the positive control by the sodium lauryl sulphate (SLS) 0.5% in distillate water. The test substances were tested in concentrations of 1 µM. The observation time of the produced reactions was 5 min (300 s) and the time, at which the occurrence of a particular reaction took place was recorded in seconds. Finally, the following reactions were monitored: hemorrhage—H (blood vessel bleeding), vascular lysis —L (disintegration of blood vessels), and coagulation —C (intra or extra- vascular protein denaturizing). A variety of analysis methods may be used to assess irritancy potential of test substances. One analysis method that has been used extensively used is an irritation score (IS) calculated according to the following formula: IS=5×301−SecH/300+[…]/300+9×301−SecC/300 where H = hemorrhage; L = vessel lysis; C = coagulation; Hemorrhage time (Sec H) = onset of hemorrhage reactions on CAM (in sec); Lysis time (Sec L) = onset of vessel lysis on CAM (in sec); Coagulation time (Sec C) = onset of coagulation formation on CAM (in sec). The formula comprises a factor indicating the impact of the observed effect on vascular damage, e.g., coagulation has the highest impact expressed by the multiplication factor 9. The IS values range on a scale between 0 and 21.

[2] = set-up: method as in PMID 11527742, doi:10.1007/s00044-018-2189-6, PMID 32956968; conditions: literature data; cited from earlier work

| Compound | GI50 [1] [µM] | other results |
| --- | --- | --- |
| 2,30-bis-(3-pyridinylidene)-platanic acid | 1 to 2 | – |
| 3-pyridinylidene-messagenin | 1 to 2 | – |
| CCCCCCCCCCCCOS(=O)(=O)[O-].[Na+] [SLS 0.5%, sodium laurylsulphate, reference compound] | – | Type of Effect (chorioallantoic membrane): Strong irritant |
| CC(=O)[C@@H]1CC[C@]2(C(=O)O)CC[C@]3(C)[C@H](CC[C@@H]4[C@@]5(C)CC[C@H](O)C(C)(C)[C@@H]5CC[C@]43C)[C@@H]12 [platanic acid] | – | GI50 [2]: > 50 µM |
